Assay results from US20210106567A1, “COMPOSITIONS AND METHODS FOR INHIBITING CARP-1 BINDING TO NEMO” (United States Government As Represented By The Department …, priority 2019, published 2021).
One block for each compound: values may come before it. Ends that are not written are not given here.

Experiments:
MDA-MB-468 TNBC cells = assay: MTT cell viability, SNI-1 analogs; format: cell-based, human; conditions: 24 h
Protocol: FIGS. 22A-B show SNI-1 analogs enhance Adriamycin inhibition of TNBC cell growth. FIGS. 22A-B show cells treated with indicated dose of noted agent for 24 h, and their viabilities determined by MTT assay. Columns represent means of three independent experiments; bars, SE.
MDA-MB-468 TNBC cells were next treated with each of the analog in vitro as a single agent or in combination with Adriamycin in vitro.

[1] = target: T1, Flag-CARP-1 (546-580) binding with Biotin-NEMO (221-261) (Homo sapiens, UniProt Q8IX12); assay: AlphaLISA assay of CARP-1/NEMO peptide binding (HTS format); conditions: read-out: IC50, inhibition of binding of CARP-1 (546-580) with NEMO (221-261) peptide
T1 construct: Flag-tagged CARP-1 (546-580); purchased Peptides America, Fairfax, Va; host or cells: chemical synthesis
Source text: The predicted kinetics of interaction of CARP-1 (551-600; SEQ ID NO: 5) and NEMO (221-261; SEQ ID NO: 2) epitopes was further validated by utilizing respective, chemically synthesized peptides to determine their in-solution binding by SPR technology (Sekhar et al. (2019) Cancers (Basel) 11). […] On the collective basis of the data in FIG. 1, and biophysical and SPR data above, in vitro binding assays were developed utilizing chemically synthesized CARP-1 and NEMO peptides. In the first instance, CARP-1 (551-580; SEQ ID NO: 6) and NEMO (221-261; SEQ ID NO: 2) peptides were used to carry out buffer optimization and DMSO tolerance of the assay. […] Presence of 0.01% tween minimizes non-specific binding and generates higher reproducibility as noted by smaller error bars in FIG. 15A. […]
The AlphaLISA assay for high throughput screening: For screening of a library of chemical compounds, an […] assay was developed and optimized for use in 384-well format (SAMDI Tech, Chicago, Ill.). […] The assay signal (Fluorescence) was measured at 680 nm excitation and 615 nm emission wavelengths to determine assay robustness and DMSO tolerance. […] The plates were read on a Pherastar FS plate reader. […] Those wells were further analyzed to investigate the 8 compounds individually in duplicate.

[2] = tested on: parental and chemo-resistant human and murine TNBC cells and parental renal cancer cells; assay: Cytokine ELISA of culture media, chemotherapy-induced secretion; format: cell-based; conditions: single agent
NEMO (221-260) peptide = target: T2, NEMO (221-260) peptide (Homo sapiens, UniProt Q9Y6K9); assay: Surface Plasmon Resonance kinetics of CARP-1 peptide binding with NEMO peptide; conditions: SPR
T2 construct: host or cells: chemical synthesis
Protocol: Next, kinetics of CARP-1 binding with NEMO were determined by Surface Plasmon Resonance (SPR) Technology (Profacgen, Shirley, N.Y.). Briefly, CARP-1 (551-580) peptide (Amino terminal-[…]-Carboxyl terminal; SEQ ID NO: 6) was dissolved in water, and various concentrations of CARP-1 Peptide were manually printed onto the bare gold-coated (thickness 47 nm) PlexArray Nanocapture Sensor Chip (Plexera Bioscience, Seattle, Wash., US) at 40% humidity. Each concentration was printed in replicate, and each spot contained 0.2 μL of sample solution. The chip was incubated in 80% humidity at 4° C. for overnight, and rinsed with 10×PBST for 10 min, 1×PBST for 10 min, and deionized water twice for 10 min. The chip was then blocked with 5% (w/v) non-fat milk in water overnight, and washed with 10×PBST for 10 min, 1×PBST for 10 min, and deionized water twice for 10 min before being dried under a stream of nitrogen prior to use. The binding reactions with NEMO (221-260; SEQ ID NO: 7) peptide (Amino terminal-[…]-Carboxyl terminal; SEQ ID NO: 7) were performed in PBST buffer (0.01M phosphate buffered saline (0.138 M NaCl; 0.0027 M KCl), 0.05% Tween-20, pH 7.4). SPRi measurements were performed with PlexAray HT (Plexera Bioscience, Seattle, Wash., US). […] The signal changes after binding and washing (in AU) were recorded as the assay value. Selected protein-grafted regions in the SPR images were analyzed, and the average reflectivity variations of the chosen areas were plotted as a function of time. Real-time binding signals were recorded and analyzed by Data Analysis Module (DAM, Plexera Bioscience, Seattle, Wash., US). […]
Association and dissociation rate constants were calculated by numerical integration and global fitting to a 1:1 interaction model and the equation: dRU(t)/dt=kaC(R^max−RU(t))−kdRU(t), where RU(t) is the response at time t, Rmax is the maximum response, C is the concentration of analyte in solution, ka is the association rate constant, kd is the dissociation rate constant, and RU (0)=0.

[3] = tested on: mammospheres derived from human TNBC PDX tumors; assay: Three-dimensional mammosphere assay (MTT); format: cell-based; conditions: Homo sapiens; 5 μM for 48 h
Protocol: Three-dimensional Mammosphere Assays: The PDX tumor cells were dissociated from the tumor fragments, and cultured for 2-dimensional and mammosphere studies in vitro (Cheriyan et al. (2016) Oncotarget 7, 73370-73388). Briefly, the cells were washed twice in 1×PBS, trypsinized, and pelleted at 200×g at room temperature. Cells were then re-suspended in 5 ml of mammosphere media (DMEM/F12 containing 2 mM L-glutamine, 100 U/ml penicillin, 100 U/ml streptomycin, 1×B27 supplement, 20 ng/ml recombinant human epidermal growth factor (EGF; Sigma), 10 ng/ml recombinant human basic fibroblast growth factor (bFGF; R&D Systems). Approximately 5000 viable cells per ml was then seeded in an ultra-low adherent 60 mm plate and incubated at 37° C. and 5% CO2 for two weeks without disturbing the plates. After the mammospheres formed, fresh media with or without Adriamycin (5 μM), SNI-1 (2.5 or 5.0 μM), or a combination of these agents was added and the cells incubated for additional 48 h at 37° C. and 5% CO2. The mammospheres in the untreated and treated plates were photographed, and the cells were then dissociated to determine their viabilities by the MTT assay (Cheriyan et al. (2016) Oncotarget 7, 73370-73388).

[4] = tested on: p65/RelA activation and phosphorylation of NEMO; assay: Western blot for canonical NF-κB activation; format: cell-based; conditions: single agent, Western blot
Source text: (§1) The cells were lysed to prepare protein extracts.

cleaved RIPK1 = assay: Western blot for RIPK1 cleavage; format: cell-based
Source text: as §1

4T1 TNBC tumors = assay: 4T1 TNBC syngeneic tumor efficacy study in Balb/c mice; format: in vivo, mouse; conditions: ELISA of sera
Protocol: Establishment of TNBC cell-derived xenografts in Syngeneic mice: Generation of 4T1 TNBC cell-derived sub-cutaneous xenografts in Balb/c mice were performed (Cheriyan et al. (2016) Oncotarget 7, 73370-73388; and Cheriyan et al. (2017) Oncotarget 8, 104928-104945). BALB/cAnNCr, 6-8-weeks old, female mice were purchased from Charles River Laboratories (Horsham, Pa.). Following suitable acclimation of animals, 1×10^6 4T1 TNBC cells were re-suspended in 200 μl of sterile saline, and implanted in the flanks using a 27-gauge needle. Tumors were allowed to grow to 500-1000 mg (˜10 days), and the aseptically harvested, minced into 3-4 mm^3 (30 mg) fragments and transplanted SC into naïve recipient mice using a standard 12 gauge trocar to serially maintain the tumor in vivo. For efficacy studies, tumors serially maintained in vivo were aseptically harvested and minced into 3-4 mm^3 (30 mg) fragments, then bilaterally transplanted subcutaneously along the flanks using a standard 12 gauge trocar. […] For the efficacy studies, SNI-1 was formulated in 8% DMSO (v/v) and 8% Cremophor (v/v) in cell grade water, pH4 as diluent.
Clinical grade ADR stock (2 mg/mL) was diluted to the appropriate concentration with cell grade water; pH4 and clinical grade CIS (1 mg/ml) diluted with USP 0.9% saline; pH6). Mice were monitored daily for changes in condition and body weight. Tumors were measured three times weekly by caliper and tumor volume (mg) was calculated using the following formula: (A×B2)/2 where A and B are the tumor length and width (in mm), respectively. […] Efficacy was also assessed quantitatively using tumor growth delay (T−C) defined as the difference between the median time (in days) required for the treatment group tumors (T) to reach 1000 mg and the median time (days) for the control group tumors to reach the same volume. Post last treatment, tumor tissue and samples from various organs (spleen, liver, kidney, heart, bone, and lungs) were collected. Additionally, the whole blood samples were obtained from a representative tumor-bearing mouse from each group via terminal cardiac puncture. Immuno-histochemical analyses of the tumor and tissue samples were performed for expression of activated RelA (serine 536 phosphorylated p65), total RelA, cleaved caspase-3, and CARP-1 proteins. The levels of pro-inflammatory cytokines in the sera were analyzed by sandwich ELISA assays following methods detailed herein (Cheriyan et al. (2016) Oncotarget 7, 73370-73388; and Cheriyan et al. (2017) Oncotarget 8, 104928-104945).

MDR1 = assay: Levels of drug efflux pump MDR1; format: cell-based, human; conditions: MDA-MB-468 cells
Source text: Of note is that SNI-1 in combination with Adriamycin provoked a greater inhibition of tumor growth when compared with the tumor growth inhibition noted in animals treated with either agent alone. […] Since TNBCs and many other cancers are often known to express drug efflux pumps that contribute to lower efficacy of drugs in clinic and development of drug-resistant tumors, it is likely that the presence/expression of these drug efflux pumps function in part to interfere with a robust anti-tumor response to a combination of SNI-1 and Adriamycin.

MDA-MB-231 TNBC cells = conditions: Wen et al. (2018); read-out: IC50, growth inhibition; cited from earlier work

T2 sequence (Q9Y6K9 222-261, one chain of several): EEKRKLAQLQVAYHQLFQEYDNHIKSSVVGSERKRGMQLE
T1 sequence (Q8IX12 546-580 limits assumed): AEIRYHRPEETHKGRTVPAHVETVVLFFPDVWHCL

Compound: Cc1ccc(-n2cnnc2S(=O)(=O)CC(=O)c2ccc(O)c(O)c2)cc1 [GL-210]
- loss of cell viability in combination with Adriamycin versus Adriamycin alone (MDA-MB-468 TNBC cells): minimal reduction in cell viabilities

Compound: O=C(CSc1nc(-c2ccccc2)cs1)c1ccc(O)c(O)c1 [GL-216]
- loss of cell viability in combination with Adriamycin versus Adriamycin alone (MDA-MB-468 TNBC cells): loss of cell viabilities that were greater

Compound: Cc1ccc(-n2ccnc2S(=O)(=O)CC(=O)c2ccc(O)c(O)c2)cc1 [GL-213]
- loss of cell viability in combination with Adriamycin versus Adriamycin alone (MDA-MB-468 TNBC cells): loss of cell viabilities that were greater

- IC50 [1]: ~25000 nM
Compound: COc1ccc(S(=O)(=O)Nc2ccccc2C(=O)NCCc2ccccc2)cc1 [SNI-2, 2-{((4-methoxyphenyl)sulfonyl)amino}-N-(2-phenylethyl)benzamide]

Compound: Cc1ccc(-n2ccnc2SCC(=O)c2ccc(O)c(O)c2)cc1 [GL-211]
- loss of cell viability in combination with Adriamycin versus Adriamycin alone (MDA-MB-468 TNBC cells): minimal reduction in cell viabilities

Compound: O=c1[nH]cc(F)c(=O)[nH]1 [5-FU]
- levels of TNFα, IL-8, and IL-1β in the media [2]: robust increase

- Kd (NEMO (221-260) peptide; chemically synthesized peptides, read-out: equilibrium dissociation constant (KD Value)): 102 nM
- kon (NEMO (221-260) peptide; read-out: Ka (association rate constant)): 2070 M⁻¹ s⁻¹
- koff (NEMO (221-260) peptide; read-out: Kd (dissociation rate constant)): 0.000212 s⁻¹
Compound: HRPEETHKGRTVPAHVETVVLFFPDVWHCL [CARP-1 (551-580)]

Compound: Cc1ccc(-n2cnnc2[S+]([O-])CC(=O)c2ccc(O)c(O)c2)cc1 (centres unmarked) [GL-209]
- loss of cell viability in combination with Adriamycin versus Adriamycin alone (MDA-MB-468 TNBC cells): loss of cell viabilities that were greater

Compound: COc1cccc2c1C(=O)c1c(O)c3c(c(O)c1C2=O)C[C@@](O)(C(=O)CO)C[C@@H]3O[C@H]1C[C@H](N)[C@H](O)[C@H](C)O1 [Adriamycin]
- inhibition at 5 µM [3]: ~30%
- p65/RelA activation and phosphorylation of NEMO [4]: robust increase
- expression of cleaved RIPK1 (cleaved RIPK1): induced expression of cleaved RIPK1
- levels of TNFα, IL-8, and IL-1β in the media [2]: robust increase
- serum levels of TNFα and IL-1β (4T1 TNBC tumors): robustly stimulated
- levels of drug efflux pump MDR1 (MDR1): moderate increase
- IC50 (MDA-MB-231 TNBC cells): ~3000 nM

Compound: Cc1ccc(-n2ccnc2[S+]([O-])CC(=O)c2ccc(O)c(O)c2)cc1 (centres unmarked) [GL-212]
- loss of cell viability in combination with Adriamycin versus Adriamycin alone (MDA-MB-468 TNBC cells): moderate reduction in cell viabilities

Compound: Cc1ccc(-n2cnnc2SCC(=O)c2ccc(O)c(O)c2)cc1 [GL-208]
- loss of cell viability in combination with Adriamycin versus Adriamycin alone (MDA-MB-468 TNBC cells): minimal reduction in cell viabilities

Compound: O=C(CSc1nc2ccccc2s1)c1ccc(O)c(O)c1 [GL-215]
- loss of cell viability in combination with Adriamycin versus Adriamycin alone (MDA-MB-468 TNBC cells): moderate reduction in cell viabilities
